pEC50: −log10 of the molar value.
Legend:
Experiment in all cases: Apparent affinity (EC50) of energy transfer probes by titration onto live HEK293 cells expressing kinase/Nluc fusions (Table S1)
Format in all cases: binding
[1] = molecular target: full-length kinase/Nluc fusion proteins (Homo sapiens, UniProt O14976); conditions: GAK, Nluc N; read-out: Probe EC50
[2] = molecular target: full-length kinase/Nluc fusion proteins (Homo sapiens, UniProt P08631); conditions: HCK, Nluc C; read-out: Probe EC50
[3] = molecular target: full-length kinase/Nluc fusion proteins (Homo sapiens, UniProt P10721); conditions: KIT, Nluc C; read-out: Probe EC50
[4] = molecular target: full-length kinase/Nluc fusion proteins (Homo sapiens, UniProt P12931); conditions: SRC (NP_005408), Nluc orientation C; read-out: Probe EC50
[5] = molecular target: full-length kinase/Nluc fusion proteins (Homo sapiens, UniProt P29323); conditions: EPHB2, Nluc C; read-out: Probe EC50
[6] = molecular target: full-length kinase/Nluc fusion proteins (Homo sapiens, UniProt P42684); conditions: ABL2, Nluc N; read-out: Probe EC50
[7] = molecular target: full-length kinase/Nluc fusion proteins (Homo sapiens, UniProt P51813); conditions: BMX, Nluc C; read-out: Probe EC50
[8] = molecular target: full-length kinase/Nluc fusion proteins (Homo sapiens, UniProt P54764); conditions: EPHA4, Nluc C; read-out: Probe EC50
[9] = molecular target: full-length kinase/Nluc fusion proteins (Homo sapiens, UniProt Q07912); conditions: TNK2 (NP_001010938), Nluc orientation C; read-out: Probe EC50
[10] = molecular target: full-length kinase/Nluc fusion proteins (Homo sapiens, UniProt Q15759); conditions: MAPK11, Nluc N; read-out: Probe EC50
[11] = molecular target: full-length kinase/Nluc fusion proteins (Homo sapiens, UniProt Q16832); conditions: DDR2, Nluc C; read-out: Probe EC50
[12] = molecular target: full-length kinase/Nluc fusion proteins (Homo sapiens, UniProt O75460); conditions: ERN1, Nluc C; read-out: Probe EC50
[13] = molecular target: full-length kinase/Nluc fusion proteins (Homo sapiens, UniProt O96013); conditions: PAK4, Nluc C; read-out: Probe EC50
[14] = molecular target: full-length kinase/Nluc fusion proteins (Homo sapiens, UniProt P06213); conditions: INSR, Nluc C; read-out: Probe EC50
[15] = molecular target: full-length kinase/Nluc fusion proteins (Homo sapiens, UniProt P07949); conditions: RET, Nluc C; read-out: Probe EC50
[16] = molecular target: full-length kinase/Nluc fusion proteins (Homo sapiens, UniProt P08069); conditions: IGF1R, Nluc C; read-out: Probe EC50
[17] = molecular target: full-length kinase/Nluc fusion proteins (Homo sapiens, UniProt P11362); conditions: FGFR1, Nluc C; read-out: Probe EC50
[18] = molecular target: full-length kinase/Nluc fusion proteins (Homo sapiens, UniProt P19784); conditions: CSNK2A2, Nluc C; read-out: Probe EC50
[19] = molecular target: full-length kinase/Nluc fusion proteins (Homo sapiens, UniProt P53667); conditions: LIMK1, Nluc C; read-out: Probe EC50
[20] = molecular target: full-length kinase/Nluc fusion proteins (Homo sapiens, UniProt P53779); conditions: JNK3, Nluc C; read-out: Probe EC50
[21] = molecular target: full-length kinase/Nluc fusion proteins (Homo sapiens, UniProt P80192); conditions: MAP3K9, Nluc N; read-out: Probe EC50
[22] = molecular target: full-length kinase/Nluc fusion proteins (Homo sapiens, UniProt Q00535); conditions: CDK5, Nluc C; read-out: Probe EC50
[23] = molecular target: full-length kinase/Nluc fusion proteins (Homo sapiens, UniProt Q06418); conditions: TYRO3 (NP_006284), Nluc orientation C; read-out: Probe EC50
[24] = molecular target: full-length kinase/Nluc fusion proteins (Homo sapiens, UniProt Q12852); conditions: MAP3K12, Nluc N; read-out: Probe EC50
[25] = molecular target: full-length kinase/Nluc fusion proteins (Homo sapiens, UniProt Q13627); conditions: DYRK1A, Nluc N; read-out: Probe EC50
[26] = molecular target: full-length kinase/Nluc fusion proteins (Homo sapiens, UniProt Q15349); conditions: RPS6KA2 (NP_001305865), Nluc orientation N; read-out: Probe EC50
[27] = molecular target: full-length kinase/Nluc fusion proteins (Homo sapiens, UniProt Q16659); conditions: MAPK6, Nluc N; read-out: Probe EC50
[28] = molecular target: full-length kinase/Nluc fusion proteins (Homo sapiens, UniProt Q6P5Z2); conditions: PKN3, Nluc C; read-out: Probe EC50
[29] = molecular target: full-length kinase/Nluc fusion proteins (Homo sapiens, UniProt Q8IYT8); conditions: ULK2 (NP_001136082), Nluc orientation N; read-out: Probe EC50
[30] = molecular target: full-length kinase/Nluc fusion proteins (Homo sapiens, UniProt Q8TD19); conditions: NEK9, Nluc N; read-out: Probe EC50
[31] = molecular target: full-length kinase/Nluc fusion proteins (Homo sapiens, UniProt Q9BYT3); conditions: STK33 (NP_001275990), Nluc orientation N; read-out: Probe EC50
[32] = molecular target: full-length kinase/Nluc fusion proteins (Homo sapiens, UniProt Q9UQB9); conditions: AURKC, Nluc C; read-out: Probe EC50

Chain of full-length kinase/Nluc fusion proteins (Homo sapiens, UniProt O75460) (O75460 19-977): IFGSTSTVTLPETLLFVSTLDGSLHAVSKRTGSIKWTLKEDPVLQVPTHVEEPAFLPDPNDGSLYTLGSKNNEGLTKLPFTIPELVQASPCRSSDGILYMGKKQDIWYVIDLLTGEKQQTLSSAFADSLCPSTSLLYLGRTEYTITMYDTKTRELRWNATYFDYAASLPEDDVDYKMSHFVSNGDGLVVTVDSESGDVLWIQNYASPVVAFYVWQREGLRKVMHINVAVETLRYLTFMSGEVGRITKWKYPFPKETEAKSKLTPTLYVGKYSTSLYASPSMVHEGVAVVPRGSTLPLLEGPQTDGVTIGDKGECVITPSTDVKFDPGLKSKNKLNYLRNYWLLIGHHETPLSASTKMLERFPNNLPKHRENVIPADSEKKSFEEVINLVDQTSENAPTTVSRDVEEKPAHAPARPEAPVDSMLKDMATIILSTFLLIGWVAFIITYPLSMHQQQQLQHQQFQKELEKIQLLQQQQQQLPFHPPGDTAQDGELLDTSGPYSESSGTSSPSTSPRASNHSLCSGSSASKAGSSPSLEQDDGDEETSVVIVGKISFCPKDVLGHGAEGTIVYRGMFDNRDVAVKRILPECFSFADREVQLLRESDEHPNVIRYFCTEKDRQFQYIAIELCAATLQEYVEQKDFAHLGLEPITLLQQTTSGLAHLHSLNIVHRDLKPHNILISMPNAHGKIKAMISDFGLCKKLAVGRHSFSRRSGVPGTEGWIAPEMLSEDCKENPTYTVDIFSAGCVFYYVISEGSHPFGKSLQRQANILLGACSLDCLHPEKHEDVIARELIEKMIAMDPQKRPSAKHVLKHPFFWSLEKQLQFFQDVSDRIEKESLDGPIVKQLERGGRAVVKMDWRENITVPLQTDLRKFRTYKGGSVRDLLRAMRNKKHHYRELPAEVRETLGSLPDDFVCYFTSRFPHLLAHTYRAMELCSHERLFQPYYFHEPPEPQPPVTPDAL
Chain of full-length kinase/Nluc fusion proteins (Homo sapiens, UniProt O14976) (O14976 whole entry, the tested form may be a part): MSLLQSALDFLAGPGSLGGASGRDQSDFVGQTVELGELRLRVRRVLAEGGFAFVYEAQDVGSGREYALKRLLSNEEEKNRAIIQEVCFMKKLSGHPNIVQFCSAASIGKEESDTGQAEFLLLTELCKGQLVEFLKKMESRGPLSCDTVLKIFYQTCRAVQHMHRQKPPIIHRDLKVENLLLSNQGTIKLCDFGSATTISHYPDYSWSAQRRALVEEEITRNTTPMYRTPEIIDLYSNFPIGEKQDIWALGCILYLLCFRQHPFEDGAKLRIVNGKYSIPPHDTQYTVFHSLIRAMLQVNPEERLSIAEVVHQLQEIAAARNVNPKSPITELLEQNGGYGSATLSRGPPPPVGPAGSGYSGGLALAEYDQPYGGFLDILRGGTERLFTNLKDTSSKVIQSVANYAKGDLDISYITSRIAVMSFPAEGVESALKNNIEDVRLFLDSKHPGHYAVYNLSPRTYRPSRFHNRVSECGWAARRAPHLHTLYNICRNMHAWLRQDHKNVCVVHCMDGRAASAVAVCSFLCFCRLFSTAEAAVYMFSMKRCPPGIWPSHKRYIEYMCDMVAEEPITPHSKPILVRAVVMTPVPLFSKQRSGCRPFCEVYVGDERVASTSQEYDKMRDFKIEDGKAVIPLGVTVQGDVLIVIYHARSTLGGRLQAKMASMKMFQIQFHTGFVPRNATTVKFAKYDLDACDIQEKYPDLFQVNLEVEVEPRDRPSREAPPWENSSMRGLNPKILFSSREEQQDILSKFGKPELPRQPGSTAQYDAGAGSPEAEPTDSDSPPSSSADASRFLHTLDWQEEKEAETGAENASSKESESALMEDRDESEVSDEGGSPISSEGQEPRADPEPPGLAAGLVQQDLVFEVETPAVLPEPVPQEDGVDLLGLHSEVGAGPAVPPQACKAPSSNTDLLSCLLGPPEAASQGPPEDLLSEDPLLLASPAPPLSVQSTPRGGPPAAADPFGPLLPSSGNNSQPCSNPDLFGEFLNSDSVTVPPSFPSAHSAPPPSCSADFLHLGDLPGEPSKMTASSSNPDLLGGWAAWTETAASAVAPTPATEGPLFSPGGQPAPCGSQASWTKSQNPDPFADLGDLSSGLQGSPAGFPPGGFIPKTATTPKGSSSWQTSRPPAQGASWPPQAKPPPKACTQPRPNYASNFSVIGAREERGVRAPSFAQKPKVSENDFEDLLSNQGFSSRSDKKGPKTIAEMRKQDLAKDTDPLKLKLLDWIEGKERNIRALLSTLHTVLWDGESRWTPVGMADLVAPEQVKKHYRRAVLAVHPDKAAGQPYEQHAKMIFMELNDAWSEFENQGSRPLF
Chain of full-length kinase/Nluc fusion proteins (Homo sapiens, UniProt P08631) (P08631 whole entry, the tested form may be a part): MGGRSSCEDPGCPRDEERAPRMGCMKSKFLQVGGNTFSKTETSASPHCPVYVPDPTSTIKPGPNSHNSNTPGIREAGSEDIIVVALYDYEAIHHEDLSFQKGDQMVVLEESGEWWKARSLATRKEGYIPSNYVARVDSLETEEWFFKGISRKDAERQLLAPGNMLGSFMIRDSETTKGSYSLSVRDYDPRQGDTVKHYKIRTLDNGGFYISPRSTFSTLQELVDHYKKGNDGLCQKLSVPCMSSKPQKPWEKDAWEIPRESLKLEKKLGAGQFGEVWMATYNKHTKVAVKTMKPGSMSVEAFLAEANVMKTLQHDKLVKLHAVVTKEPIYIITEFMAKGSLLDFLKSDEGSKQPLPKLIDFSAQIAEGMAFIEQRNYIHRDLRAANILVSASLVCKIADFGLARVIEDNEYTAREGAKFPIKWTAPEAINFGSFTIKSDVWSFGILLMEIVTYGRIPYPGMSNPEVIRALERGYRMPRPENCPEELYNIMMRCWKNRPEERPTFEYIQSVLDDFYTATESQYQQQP
Chain of full-length kinase/Nluc fusion proteins (Homo sapiens, UniProt P80192) (P80192 whole entry, the tested form may be a part): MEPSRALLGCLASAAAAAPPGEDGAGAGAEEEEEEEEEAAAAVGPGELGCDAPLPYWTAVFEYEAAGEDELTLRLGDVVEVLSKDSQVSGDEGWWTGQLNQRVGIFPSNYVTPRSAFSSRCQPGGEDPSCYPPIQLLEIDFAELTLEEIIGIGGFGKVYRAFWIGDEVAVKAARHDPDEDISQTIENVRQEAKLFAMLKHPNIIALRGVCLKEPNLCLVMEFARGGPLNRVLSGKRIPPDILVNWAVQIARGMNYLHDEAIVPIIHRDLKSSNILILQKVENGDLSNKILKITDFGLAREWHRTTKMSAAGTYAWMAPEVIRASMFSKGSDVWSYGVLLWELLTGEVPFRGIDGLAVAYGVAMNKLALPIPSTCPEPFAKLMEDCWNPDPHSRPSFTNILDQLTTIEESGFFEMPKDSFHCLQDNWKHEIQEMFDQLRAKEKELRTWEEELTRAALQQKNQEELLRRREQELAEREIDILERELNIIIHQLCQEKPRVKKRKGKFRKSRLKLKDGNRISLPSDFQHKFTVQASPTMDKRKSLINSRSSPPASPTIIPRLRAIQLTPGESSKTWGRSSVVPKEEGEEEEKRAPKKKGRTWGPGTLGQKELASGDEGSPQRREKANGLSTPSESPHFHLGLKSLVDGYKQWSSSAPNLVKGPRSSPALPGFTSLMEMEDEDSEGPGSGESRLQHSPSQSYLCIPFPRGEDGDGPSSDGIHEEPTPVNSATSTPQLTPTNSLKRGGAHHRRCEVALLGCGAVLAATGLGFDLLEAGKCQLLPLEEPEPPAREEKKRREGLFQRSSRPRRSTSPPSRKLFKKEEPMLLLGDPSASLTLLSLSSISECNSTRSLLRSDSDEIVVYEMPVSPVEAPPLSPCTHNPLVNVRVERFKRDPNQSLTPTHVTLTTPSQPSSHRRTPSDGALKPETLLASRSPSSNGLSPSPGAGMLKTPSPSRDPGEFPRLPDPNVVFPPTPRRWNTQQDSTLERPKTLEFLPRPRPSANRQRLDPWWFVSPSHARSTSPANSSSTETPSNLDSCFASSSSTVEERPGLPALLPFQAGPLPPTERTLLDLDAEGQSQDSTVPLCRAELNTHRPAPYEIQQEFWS
Chain of full-length kinase/Nluc fusion proteins (Homo sapiens, UniProt P07949) (P07949 29-1114): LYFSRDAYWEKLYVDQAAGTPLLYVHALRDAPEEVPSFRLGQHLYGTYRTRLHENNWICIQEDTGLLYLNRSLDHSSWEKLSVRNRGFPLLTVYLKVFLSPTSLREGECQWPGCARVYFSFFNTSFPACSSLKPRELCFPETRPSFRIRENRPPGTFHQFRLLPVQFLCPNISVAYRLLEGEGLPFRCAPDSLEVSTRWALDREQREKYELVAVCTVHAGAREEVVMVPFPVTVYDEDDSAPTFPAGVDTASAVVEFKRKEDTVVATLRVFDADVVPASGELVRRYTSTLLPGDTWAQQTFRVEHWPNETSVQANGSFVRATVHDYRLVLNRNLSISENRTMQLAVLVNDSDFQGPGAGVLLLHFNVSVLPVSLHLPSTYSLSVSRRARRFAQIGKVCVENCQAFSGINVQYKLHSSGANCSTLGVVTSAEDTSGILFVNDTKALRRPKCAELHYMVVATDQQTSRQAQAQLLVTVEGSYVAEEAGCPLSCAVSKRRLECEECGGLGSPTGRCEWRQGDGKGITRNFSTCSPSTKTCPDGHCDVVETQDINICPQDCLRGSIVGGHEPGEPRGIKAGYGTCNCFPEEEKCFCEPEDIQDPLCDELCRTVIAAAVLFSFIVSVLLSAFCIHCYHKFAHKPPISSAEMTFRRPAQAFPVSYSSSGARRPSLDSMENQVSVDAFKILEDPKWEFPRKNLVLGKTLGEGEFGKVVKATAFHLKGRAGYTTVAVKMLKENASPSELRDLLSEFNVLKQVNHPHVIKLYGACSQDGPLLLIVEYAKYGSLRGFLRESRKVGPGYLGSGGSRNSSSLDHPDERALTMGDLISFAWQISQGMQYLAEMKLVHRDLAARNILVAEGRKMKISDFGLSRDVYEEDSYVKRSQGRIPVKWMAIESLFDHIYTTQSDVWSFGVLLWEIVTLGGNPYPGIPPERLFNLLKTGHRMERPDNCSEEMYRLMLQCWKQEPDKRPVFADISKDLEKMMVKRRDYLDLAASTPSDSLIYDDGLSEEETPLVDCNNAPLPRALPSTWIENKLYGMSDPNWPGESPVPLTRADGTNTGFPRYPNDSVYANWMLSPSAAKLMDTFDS

For Cc1nc(Nc2ncc(C(=O)Nc3c(C)cccc3Cl)s2)cc(N2CCN(CCOCCNC(=O)CCc3ccc4n3[B-](F)(F)[N+]3=C(c5ccc[nH]5)C=CC3=C4)CC2)n1 [Energy Transfer Probe 6, 2-((6-(4-(2-(2-aminoethoxy)ethyl)piperazin-1-yl)-2-methylpyrimidin-4-yl)amino)-N-(2-chloro-6-methylphenyl)thiazole-5-carboxamide-NanoBRET 590], the pEC50 [1] was 6.30, the pEC50 [2] was under 6.00 and the pEC50 [3] was 6.70. The pEC50 [4] was 6.52, the pEC50 [5] was 7.70 and the pEC50 [6] was 8.00. It also gave a pEC50 [7] of 6.52, a pEC50 [8] of 7.40 and a pEC50 [9] of 7.00. It also gave a pEC50 [10] of 6.70 and a pEC50 [11] of 7.00.

CNC(=O)c1ccccc1Nc1nc(Nc2ccc(N3CCN(C(=O)CCOCCOCCOCCOCCNC(=O)CCc4ccc5n4[B-](F)(F)[N+]4=C(c6ccc[nH]6)C=CC4=C5)CC3)cc2)ncc1Cl [Energy Transfer Probe 5, 2-((2-((4-(4-(1-amino-3,6,9,12-tetraoxapentadecan-15-oyl)piperazin-1-yl)phenyl)amino)-5-chloropyrimidin-4-yl)amino)-N-methylbenzamide-NanoBRET 590] was tested, and the pEC50 [12] was under 6.00, the pEC50 [13] was under 6.00 and the pEC50 [14] was under 6.00. It also gave a pEC50 [15] of 6.30, a pEC50 [16] of under 6.00 and a pEC50 [17] of 6.22. The pEC50 [18] was under 6.00, the pEC50 [19] was under 6.00 and the pEC50 [20] was under 6.00. The pEC50 [21] was under 6.00, the pEC50 [22] was under 6.00 and the pEC50 [23] was under 6.00. For the same compound, the pEC50 [24] was under 6.00, the pEC50 [25] was under 6.00 and the pEC50 [26] was 6.22. For the same compound, the pEC50 [27] was 6.40, the pEC50 [28] was under 6.00 and the pEC50 [29] was under 6.00. It also gave a pEC50 [30] of under 6.00, a pEC50 [31] of 6.40 and a pEC50 [32] of 7.70.

Source: article PMC5814754, “Quantitative, Wide-Spectrum Kinase Profiling in Live Cells for Assessing the Effect of Cellular ATP on Target Engagement” (Cell Chemical Biology, 2018)
